Assay results as given in ChEMBL document CHEMBL1148572, “1-((S)-2-aminopropyl)-1H-indazol-6-ol: a potent peripherally acting 5-HT2 receptor agonist with ocular hypotensive activity” (J Med Chem, 2006).

Experiments:
[1] = Half life in phosphate buffer at pH 7.4 in 25 degC; format: ADME
[2] = target: 5-hydroxytryptamine receptor 2A (Homo sapiens, UniProt P28223); format: cell-based, CHO
[3] = test system: MDR1 (P-gp); test: Permeability from apical to basolateral side of the MDCK cell transfected with human MDR1; format: ADME, cell-based
[4] = target: 5-hydroxytryptamine receptor 2B (Homo sapiens, UniProt P41595); test: biochemical
Description: Displacement of [125I]DOI from cloned human 5HT2B receptor expressed in CHO cells

[5] = target: T1, 5-hydroxytryptamine receptor 2C (Homo sapiens, UniProt P28335); test: biochemical
T1 sequence (P28335 whole entry): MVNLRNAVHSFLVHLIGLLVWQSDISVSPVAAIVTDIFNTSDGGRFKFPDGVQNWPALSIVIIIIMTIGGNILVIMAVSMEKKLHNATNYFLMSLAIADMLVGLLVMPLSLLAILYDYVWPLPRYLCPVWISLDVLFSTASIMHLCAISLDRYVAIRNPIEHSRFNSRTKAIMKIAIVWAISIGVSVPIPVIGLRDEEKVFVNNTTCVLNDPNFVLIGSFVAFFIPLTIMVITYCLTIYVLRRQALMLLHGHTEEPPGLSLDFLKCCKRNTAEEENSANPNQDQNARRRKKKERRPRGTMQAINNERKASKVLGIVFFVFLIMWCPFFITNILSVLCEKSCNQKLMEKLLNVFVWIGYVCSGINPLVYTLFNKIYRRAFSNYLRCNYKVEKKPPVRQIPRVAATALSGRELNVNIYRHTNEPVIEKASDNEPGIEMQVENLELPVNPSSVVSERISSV
Description: Displacement of [125I]DOI from cloned human 5HT2C receptor expressed in CHO cells

[6] = target: T2, 5-hydroxytryptamine receptor 2C (Rattus norvegicus) (UniProt P08909); test: Activity against recombinant rat 5HT2C mediated intracellular calcium mobilization by FLIPR in SR3T3 cells
T2 sequence (whole entry): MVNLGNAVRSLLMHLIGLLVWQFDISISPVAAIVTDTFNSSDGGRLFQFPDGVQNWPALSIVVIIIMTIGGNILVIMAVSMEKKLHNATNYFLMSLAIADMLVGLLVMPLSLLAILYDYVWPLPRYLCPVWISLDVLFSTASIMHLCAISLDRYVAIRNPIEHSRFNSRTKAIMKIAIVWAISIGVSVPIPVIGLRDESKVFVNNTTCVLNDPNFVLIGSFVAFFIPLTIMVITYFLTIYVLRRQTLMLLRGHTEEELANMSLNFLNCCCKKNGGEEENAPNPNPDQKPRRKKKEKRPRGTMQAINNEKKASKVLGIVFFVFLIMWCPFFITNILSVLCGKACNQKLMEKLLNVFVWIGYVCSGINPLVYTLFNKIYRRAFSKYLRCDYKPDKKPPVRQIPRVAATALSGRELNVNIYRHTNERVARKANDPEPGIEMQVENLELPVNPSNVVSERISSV

[7] = Distribution coefficient at pH 7.4; format: physicochemical; conditions: octanol/water
[8] = target: T3, 5-hydroxytryptamine receptor 2C (Rattus norvegicus, UniProt P08909); test: Activity against recombinant rat 5HT2C mediated intracellular calcium mobilization by FLIPR in SR3T3 cells
T3 sequence (P08909 whole entry): T2 sequence (whole entry)

[9] = target: 5-hydroxytryptamine receptor 2B (Rattus norvegicus, UniProt P30994); test: Activity against 5HT2B receptor in longitudinal stomach fundus strips in wistar rats
[10] = target: T4, 5-hydroxytryptamine receptor 2A (Rattus norvegicus, UniProt P14842); format: tissue-based, Cerebral cortex
[11] = test system: MDR1 (P-gp); test: Permeability from basolateral to apical side of the MDCK cell transfected with human MDR1; format: ADME, cell-based
[12] = target: 5-hydroxytryptamine receptor 2A (Rattus norvegicus) (UniProt P14842); test: (§1) Activity against 5HT2A mediated intracellular calcium mobilization by FLIPR in rat vascular smooth muscle cells; format: functional, cell-based
[13] = target: T4, 5-hydroxytryptamine receptor 2A; test: as §1; format: functional, cell-based
[14] = test system: MDR1 (P-gp); test: in vitro; conditions: human, MDCK-MDR1
Description: Ratio of permeability from basolateral to apical over apical to basolateral side of the MDCK cell transfected with human MDR1

[15] = Half life in phosphate buffer at pH 7.4 in 45 degC; format: ADME
[16] = target: T5, Alpha-2A adrenergic receptor (Homo sapiens, UniProt P08913); test: Activity at adrenergic alpha-2A receptor expressed in human clonic adenocarcinoma HT29 cell by adenylyl cyclase assay; format: functional, cell-based, HT-29
T5 sequence (P08913 whole entry): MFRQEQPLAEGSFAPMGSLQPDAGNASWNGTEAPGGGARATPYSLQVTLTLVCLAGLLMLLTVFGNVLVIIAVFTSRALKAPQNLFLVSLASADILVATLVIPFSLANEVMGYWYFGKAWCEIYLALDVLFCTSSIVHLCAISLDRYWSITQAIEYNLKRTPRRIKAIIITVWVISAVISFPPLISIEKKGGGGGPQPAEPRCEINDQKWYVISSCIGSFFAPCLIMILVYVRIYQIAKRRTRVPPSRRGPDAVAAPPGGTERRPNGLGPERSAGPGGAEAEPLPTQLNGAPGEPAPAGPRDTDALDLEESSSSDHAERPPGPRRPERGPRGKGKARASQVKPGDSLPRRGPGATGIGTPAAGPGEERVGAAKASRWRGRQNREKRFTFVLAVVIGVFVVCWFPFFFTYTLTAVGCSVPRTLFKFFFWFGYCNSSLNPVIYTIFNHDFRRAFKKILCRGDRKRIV

[17] = target: T6, Alpha-2C adrenergic receptor (Homo sapiens, UniProt P18825); test: Activity at adrenergic Alpha-2C receptor expressed in rat-mouse hybrid […] cell by adenylyl cyclase assay; format: functional, cell-based
T6 sequence (P18825 whole entry): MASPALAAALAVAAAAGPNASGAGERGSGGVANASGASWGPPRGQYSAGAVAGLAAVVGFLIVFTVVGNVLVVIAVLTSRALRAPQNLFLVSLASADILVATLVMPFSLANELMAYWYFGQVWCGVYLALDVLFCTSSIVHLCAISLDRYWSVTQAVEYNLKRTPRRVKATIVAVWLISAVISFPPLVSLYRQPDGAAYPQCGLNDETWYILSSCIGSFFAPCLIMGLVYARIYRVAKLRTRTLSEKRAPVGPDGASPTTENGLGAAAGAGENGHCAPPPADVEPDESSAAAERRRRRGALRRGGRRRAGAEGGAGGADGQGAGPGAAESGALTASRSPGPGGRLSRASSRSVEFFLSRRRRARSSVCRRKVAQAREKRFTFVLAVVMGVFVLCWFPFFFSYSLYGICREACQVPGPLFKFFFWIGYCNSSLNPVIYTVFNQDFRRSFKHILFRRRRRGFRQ

[18] = target: T7, 5-hydroxytryptamine receptor 1A (Homo sapiens, UniProt P08908); test: Agonistic activity at cloned human 5HT1A receptor expressed in CHO cells by inhibition of forskolin-induced cAMP production; format: functional, cell-based
T7 sequence (P08908 whole entry): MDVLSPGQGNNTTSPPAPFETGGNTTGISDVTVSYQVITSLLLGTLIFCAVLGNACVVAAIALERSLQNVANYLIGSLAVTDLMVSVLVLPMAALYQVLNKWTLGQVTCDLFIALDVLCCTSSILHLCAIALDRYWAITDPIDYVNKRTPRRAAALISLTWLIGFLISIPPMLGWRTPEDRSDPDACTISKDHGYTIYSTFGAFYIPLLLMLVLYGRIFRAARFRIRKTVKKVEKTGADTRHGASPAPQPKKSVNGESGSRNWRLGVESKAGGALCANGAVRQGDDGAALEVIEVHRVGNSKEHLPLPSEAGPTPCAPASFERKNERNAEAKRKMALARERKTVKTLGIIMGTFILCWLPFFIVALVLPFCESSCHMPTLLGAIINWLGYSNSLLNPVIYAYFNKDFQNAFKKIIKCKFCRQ

[19] = target: 5-hydroxytryptamine receptor 7 (Homo sapiens, UniProt P34969); test: Activity at 5HT7 receptor expressed in human corneal epithelial CEPI-17-CL4 cells by adenylyl cyclase assay; format: functional, cell-based, Cornea
[20] = target: T5, Alpha-2A adrenergic receptor; test: Activity at adrenergic alpha2A receptor expressed in human clonic adenocarcinoma HT29 cell by […]; format: functional, cell-based, HT-29
[21] = target: Alpha-2B adrenergic receptor (Homo sapiens, UniProt P18089); test: Activity at adrenergic alpha-2B receptor expressed in opposum kidney OK cell by adenylyl cyclase assay; format: functional, cell-based
Alpha-2B adrenergic receptor, sequence (P18089 whole entry): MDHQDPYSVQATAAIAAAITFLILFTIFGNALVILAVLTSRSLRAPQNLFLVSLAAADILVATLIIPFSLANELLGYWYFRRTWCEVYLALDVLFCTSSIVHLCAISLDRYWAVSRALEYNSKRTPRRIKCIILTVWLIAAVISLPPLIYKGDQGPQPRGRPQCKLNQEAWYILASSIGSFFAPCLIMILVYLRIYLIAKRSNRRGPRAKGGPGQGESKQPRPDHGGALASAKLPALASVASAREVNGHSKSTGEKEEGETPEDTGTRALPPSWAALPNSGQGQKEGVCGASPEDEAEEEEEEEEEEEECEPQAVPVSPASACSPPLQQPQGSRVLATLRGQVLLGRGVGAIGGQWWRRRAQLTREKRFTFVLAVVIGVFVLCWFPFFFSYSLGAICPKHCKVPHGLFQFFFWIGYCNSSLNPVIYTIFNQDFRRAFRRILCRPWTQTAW

5-hydroxytryptamine receptor 2B (Homo sapiens, UniProt P41595), sequence (P41595 whole entry): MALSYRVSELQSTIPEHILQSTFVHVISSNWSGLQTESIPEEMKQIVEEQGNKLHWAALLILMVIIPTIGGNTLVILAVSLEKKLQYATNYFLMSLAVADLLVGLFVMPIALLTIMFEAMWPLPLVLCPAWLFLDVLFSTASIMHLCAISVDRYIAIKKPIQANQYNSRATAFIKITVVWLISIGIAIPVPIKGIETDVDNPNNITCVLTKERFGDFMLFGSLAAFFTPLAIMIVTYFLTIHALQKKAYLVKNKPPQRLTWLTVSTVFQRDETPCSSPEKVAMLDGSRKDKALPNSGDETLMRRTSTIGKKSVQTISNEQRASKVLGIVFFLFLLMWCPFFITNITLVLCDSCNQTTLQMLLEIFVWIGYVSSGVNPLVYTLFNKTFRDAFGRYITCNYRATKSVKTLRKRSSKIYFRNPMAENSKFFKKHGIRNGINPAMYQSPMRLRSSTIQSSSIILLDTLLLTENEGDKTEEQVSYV
T4 sequence (P14842 whole entry): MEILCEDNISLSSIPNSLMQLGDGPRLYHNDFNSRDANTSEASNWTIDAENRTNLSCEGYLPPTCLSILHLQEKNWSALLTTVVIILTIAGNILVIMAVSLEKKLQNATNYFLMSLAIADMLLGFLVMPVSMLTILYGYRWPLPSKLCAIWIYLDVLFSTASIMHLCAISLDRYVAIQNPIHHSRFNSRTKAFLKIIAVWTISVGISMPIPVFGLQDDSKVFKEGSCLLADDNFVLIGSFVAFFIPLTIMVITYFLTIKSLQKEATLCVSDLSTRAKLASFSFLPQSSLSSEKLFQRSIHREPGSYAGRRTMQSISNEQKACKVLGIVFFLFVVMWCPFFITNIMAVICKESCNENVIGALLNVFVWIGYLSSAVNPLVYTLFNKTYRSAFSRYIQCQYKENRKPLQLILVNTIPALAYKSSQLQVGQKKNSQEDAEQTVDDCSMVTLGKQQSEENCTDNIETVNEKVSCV
5-hydroxytryptamine receptor 2A (Rattus norvegicus), sequence (P14842 whole entry): as above
5-hydroxytryptamine receptor 2A (Homo sapiens, UniProt P28223), sequence (P28223 whole entry): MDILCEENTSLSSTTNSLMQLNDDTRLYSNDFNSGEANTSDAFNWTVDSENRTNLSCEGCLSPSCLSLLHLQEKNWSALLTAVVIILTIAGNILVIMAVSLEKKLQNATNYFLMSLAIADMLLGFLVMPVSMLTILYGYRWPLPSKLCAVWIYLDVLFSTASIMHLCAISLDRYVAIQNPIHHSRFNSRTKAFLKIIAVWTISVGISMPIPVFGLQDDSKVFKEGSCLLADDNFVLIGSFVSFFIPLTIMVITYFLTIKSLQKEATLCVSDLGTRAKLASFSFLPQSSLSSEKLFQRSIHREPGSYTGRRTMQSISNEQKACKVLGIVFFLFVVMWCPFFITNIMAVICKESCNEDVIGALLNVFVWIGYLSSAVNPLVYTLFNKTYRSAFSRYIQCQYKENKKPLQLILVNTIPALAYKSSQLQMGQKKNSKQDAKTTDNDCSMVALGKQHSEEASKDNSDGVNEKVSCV
5-hydroxytryptamine receptor 2B (Rattus norvegicus, UniProt P30994), sequence (P30994 whole entry): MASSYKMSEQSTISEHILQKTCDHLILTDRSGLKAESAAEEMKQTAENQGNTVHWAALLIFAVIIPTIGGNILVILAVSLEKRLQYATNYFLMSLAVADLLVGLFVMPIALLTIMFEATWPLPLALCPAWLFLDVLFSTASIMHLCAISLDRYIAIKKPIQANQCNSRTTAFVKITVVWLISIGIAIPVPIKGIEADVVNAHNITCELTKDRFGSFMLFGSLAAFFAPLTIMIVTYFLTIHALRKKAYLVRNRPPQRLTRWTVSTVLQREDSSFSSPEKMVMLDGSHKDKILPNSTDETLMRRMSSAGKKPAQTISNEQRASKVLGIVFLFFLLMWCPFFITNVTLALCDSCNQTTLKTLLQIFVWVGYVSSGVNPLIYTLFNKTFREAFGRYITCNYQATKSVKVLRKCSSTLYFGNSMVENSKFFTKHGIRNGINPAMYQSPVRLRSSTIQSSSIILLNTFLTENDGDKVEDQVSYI
5-hydroxytryptamine receptor 7, sequence (P34969 whole entry): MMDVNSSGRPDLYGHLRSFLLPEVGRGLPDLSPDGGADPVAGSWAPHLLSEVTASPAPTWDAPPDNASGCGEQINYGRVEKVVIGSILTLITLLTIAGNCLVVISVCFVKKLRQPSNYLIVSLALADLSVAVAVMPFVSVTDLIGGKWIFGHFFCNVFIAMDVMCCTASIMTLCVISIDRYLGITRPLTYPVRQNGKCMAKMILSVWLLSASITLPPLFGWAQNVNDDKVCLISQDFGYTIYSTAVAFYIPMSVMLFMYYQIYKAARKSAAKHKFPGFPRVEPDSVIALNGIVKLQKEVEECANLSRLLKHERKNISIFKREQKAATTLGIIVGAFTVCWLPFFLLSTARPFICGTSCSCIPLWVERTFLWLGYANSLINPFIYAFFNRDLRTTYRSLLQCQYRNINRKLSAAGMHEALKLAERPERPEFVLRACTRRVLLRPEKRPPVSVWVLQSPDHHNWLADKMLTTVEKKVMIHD

Row | SMILES | T1/2 [1] [yr] | Ki [2] [nM] | Papp A→B [3] [×10⁻⁶ cm/s] | Ki [4] [nM] | Ki [5] [nM] | Emax [6] [%] | logD [7] | EC50 [8] [nM] | EC50 [9] [nM] | IC50 [10] [nM] | Papp B→A [11] [×10⁻⁶ cm/s] | Emax [12] [%] | EC50 [13] [nM] | further results
1 | Cc1c(O)ccc2cnn(C[C@H](C)N)c12 | 0.73 | 1.8 | 2.49 | 8.7 | 3.6 | 91 | 1.28 | 7.3 | 8.9 | 0.74 | 3.12 | 89 | 81.3 | 
2 | NCCn1ncc2ccc(O)cc21 | 3.7 | 20 | 0.64 | 15 | 9.6 | 104 | 0.254 | 4.5 | 8.6 | 0.77 | 0.6 | 75 | 74.4 | 
3 | C[C@H](N)Cn1ncc2ccc(O)c(Cl)c21 | 4 | 12 | 1.65 | 3.8 | 1.2 | 104 | 1.09 | 4.9 | 5.9 | 0.54 | 4.94 | 87 | 59.7 | efflux ratio [14]: 3
4 | COc1cc(C[C@@H](C)N)c(OC)cc1I |  |  | 12.6 |  |  |  | 2.72 | 30.2 | 11.9 | 0.21 | 23.2 | 35 | 19.8 | 
5 | CC(N)Cc1c[nH]c2ccc(O)cc12 (configuration not stated) |  |  |  |  |  | 100 |  |  |  |  |  | 96 |  | T1/2 [15]: 0.071 yr
6 | COc1ccc2[nH]cc(CC(C)N)c2c1 (configuration not stated) |  |  |  |  |  | 103 |  | 3.1 | 2.7 | 2 |  | 96 | 47.5 | 
7 | NCCc1c[nH]c2ccc(O)cc12 [SEROTONIN] |  |  |  |  |  | 94 |  |  |  |  |  | 99 |  | T1/2 [15]: 0.03 yr
8 | COc1ccc2cnn(C[C@H](C)N)c2c1 |  | 16 | 14.1 | 7.5 | 1.5 | 103 | 2.08 | 6.7 | 4.2 | 1.91 | 19.5 | 90 | 54 | 
9 | C[C@H](N)Cn1ncc2ccc(O)c(I)c21 |  | 21 | 1.22 | 6 | 4.8 |  | 3 |  |  | 1.68 | 3.46 | 73 | 204 | 
10 | C[C@H](N)Cn1ncc2ccc(O)c(F)c21 | 1.4 | 5.8 | 1.11 | 1.7 | 1 | 100 | 0.394 | 5.5 | 6.1 | 0.73 | 1.66 | 80 | 58.1 | efflux ratio [14]: 1.5
11 | C[C@@H](N)Cn1ncc2ccc(O)cc21 |  | 105 |  | 35 | 34 | 97 |  | 87.3 | 85 | 2.08 |  | 61 | 236 | EC50 [16]: > 10000 nM; EC50 [17]: 5660 nM; EC50 [18]: 2890 nM; EC50 [19]: > 10000 nM; EC50 [20]: 1990 nM; EC50 [21]: 4710 nM
12 | COc1ccc2[nH]cc(CCN(C)C)c2c1 [MEBUFOTENIN] |  |  | 16.1 |  |  | 89 | 3.3 |  |  | 9.53 | 14.4 | 70 | 462 | 
